The values that follow come from publication PMC3689883 (Journal of medicinal chemistry, 2013).

The target in experiment [1] is AMPA receptors. Conditions: read-out: Ki [3H]AMPA; rat cortical synaptosomes; ref Clausen et al 14; cited from earlier work.
The target of experiment [2] is KA receptors. The following applies: cited from earlier work; for Ki [3H]KA: rat cortical synaptosomes, ref Clausen et al 14.
For experiment [3], the target named is NMDA receptors. The following applies: cited from earlier work.
The target of experiment [4] is GluN1/GluN2D (Rattus norvegicus, UniProt Q62645). The experiment can be described thus: Two-electrode voltage-clamp, Xenopus oocytes expressing GluN1/GluN2D. Format: cell-based. Conditions: EC50 GluN2A vs GluN2D. A general note: In two-electrode clamp one electrode senses voltage and the other passes current.
Experiment [5] concerns AMPA receptors. Nature of the experiment: [3H]AMPA radioligand binding, rat cortical synaptosomes. The following applies: at a concentration of 100 μM.
Experiment [6] has as its system KA receptors. Nature of the experiment: [3H]KA radioligand binding, rat cortical synaptosomes. Conditions: at a concentration of 100 μM.

Structures are written as SMILES.

Chain of GluN1/GluN2D (Q62645 28-1323, other chains not shown): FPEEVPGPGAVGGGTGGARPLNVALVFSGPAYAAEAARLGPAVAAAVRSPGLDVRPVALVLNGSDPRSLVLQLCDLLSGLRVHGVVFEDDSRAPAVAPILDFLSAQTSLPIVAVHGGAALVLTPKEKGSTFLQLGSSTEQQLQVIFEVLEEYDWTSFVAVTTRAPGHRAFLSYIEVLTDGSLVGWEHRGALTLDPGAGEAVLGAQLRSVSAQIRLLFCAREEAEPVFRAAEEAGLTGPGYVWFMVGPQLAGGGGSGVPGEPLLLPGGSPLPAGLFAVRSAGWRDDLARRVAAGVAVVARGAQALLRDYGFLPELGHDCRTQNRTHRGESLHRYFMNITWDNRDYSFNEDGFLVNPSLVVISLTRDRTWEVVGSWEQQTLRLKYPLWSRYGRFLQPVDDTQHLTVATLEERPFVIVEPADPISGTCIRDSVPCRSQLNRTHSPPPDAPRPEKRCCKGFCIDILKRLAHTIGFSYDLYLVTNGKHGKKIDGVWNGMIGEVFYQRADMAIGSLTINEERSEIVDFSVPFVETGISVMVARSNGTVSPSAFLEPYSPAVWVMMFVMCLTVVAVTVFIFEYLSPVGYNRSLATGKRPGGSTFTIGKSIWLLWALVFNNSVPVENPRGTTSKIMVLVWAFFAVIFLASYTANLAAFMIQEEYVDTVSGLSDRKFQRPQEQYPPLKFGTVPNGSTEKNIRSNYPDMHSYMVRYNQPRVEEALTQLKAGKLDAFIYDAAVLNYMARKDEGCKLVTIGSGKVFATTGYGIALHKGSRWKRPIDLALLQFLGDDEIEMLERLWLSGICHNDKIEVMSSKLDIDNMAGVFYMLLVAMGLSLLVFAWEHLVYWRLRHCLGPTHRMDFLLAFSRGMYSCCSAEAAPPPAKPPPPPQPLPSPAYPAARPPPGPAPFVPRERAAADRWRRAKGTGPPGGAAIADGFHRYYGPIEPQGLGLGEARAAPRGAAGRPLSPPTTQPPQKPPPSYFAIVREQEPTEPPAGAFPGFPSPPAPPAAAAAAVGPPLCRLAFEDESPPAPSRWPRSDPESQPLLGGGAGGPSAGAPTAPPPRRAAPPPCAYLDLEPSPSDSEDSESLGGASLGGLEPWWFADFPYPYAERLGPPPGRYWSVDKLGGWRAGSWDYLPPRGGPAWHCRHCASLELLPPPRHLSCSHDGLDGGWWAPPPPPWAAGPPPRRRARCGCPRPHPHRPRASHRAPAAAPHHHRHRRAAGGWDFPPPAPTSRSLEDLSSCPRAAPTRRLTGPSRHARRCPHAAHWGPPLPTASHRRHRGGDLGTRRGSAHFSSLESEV

On to `NC(C(=O)O)c1ccnn1O` (racemic) [Compound 3a, (RS)-2-(N-hydroxypyrazol-5-yl)glycine], for which the Ki in experiment [1] is over 100 µM; in experiment [3] (read-out: Ki [3H]CGP39653, rat cortical synaptosomes, ref Clausen et al 14) it was 10 µM. In addition, in experiment [2], the “Ki [3H]KA” value was over 100 µM. Take `CCCc1cnn(O)c1[C@@H](N)C(=O)O` [Compound 3b]: in experiment [1], the Ki is over 100 µM. Besides, the “Ki [3H]KA” value in experiment [2] is over 100 µM. As to `CC[C@]1(C(=O)O)C[C@H]1[C@H](N)C(=O)O.Cl` [Compound 4c, (1S,2R)-2-((S)-amino(carboxy)methyl)-1-ethylcyclopropanecarboxylic acid hydrochloride], the “fold more potent at GluN2D compared to GluN2A” value in experiment [4] came to 15 fold. Regarding `CCCC[C@]1(C(=O)O)C[C@H]1[C@H](N)C(=O)O.Cl` [Compound 4e, (1S,2R)-2-((S)-amino(carboxy)methyl)-1-butylcyclopropanecarboxylic acid hydrochloride], in experiment [5], the “binding to AMPA receptors” value is on record as “not binding”. For the same compound, in experiment [6], the “binding to KA receptors” value is recorded as “not binding”. Consider `CCCC(=CC(N)C(=O)O)CP(=O)(O)O` (stereo not shown) [[^3H]CGP 39653], for which the Kd in experiment [3] (read-out: Kd of radioligand, radioligand used at 2 nM) is 0.006 µM.

For the compound `C=C(C)[C@H]1CN[C@H](C(=O)O)[C@H]1CC(=O)O` [[^3H]KA, kainic acid], in experiment [2] (read-out: Kd of radioligand, radioligand used at 5 nM), the Kd was 0.0056 µM.

In general, Ki refers to the dissociation constant of the complex between target and ligand, obtained from inhibition or displacement. The Kd is the concentration at which binding is half-saturated.
